The test system of assay [1] is Guinea Pig Ileum. Kind of assay: In vitro evaluation of anticholinergic activity in the isolated guinea pig ileum. The following applies: 4 mg/L, inhibition of field-stimulated contractile tension; for inhibition at 4 µg/mL: Cavia porcellus, read-out: Anticholinergic Inhibition of Guinea Pig Ileum (% inhibition at 4 mg/L). Set-up: species or system guinea pig (male Hartley). Here is the method:
The following examples describe the in vitro evaluation of anticholinergic activity in the isolated guinea pig ileum. Fasted, male Hartley guinea pigs (300-400 g) were killed by a blow to the head. […] One end of the ileal strip was impaled onto a platinum wire electrode; and the other end was tied to a stationary glass rod. Basal tension was set at 0.1-0.3 g and peak developed tension in response to field stimulation (100-150 V, 10 msec pulse duration, 0.2 Hz) was measured with a tension transducer.

In assay [2] the test system is ventricular arrhythmias induced by ouabain (Ouabain dog). Kind of assay: Antiarrhythmic activity in the Ouabain dog model (i.v. infusion). In kind it is in vivo. The conditions noted are these: Ouabain dog, IV infusion, ED is the effective dose required to sustain normal sinus rhythm; for minimal effective dose: Canis lupus familiaris, read-out: Antiarrhythmic ED in Ouabain Dog. Here is the method: The following examples describe the pharmacological evaluation of the compounds in accordance with the present invention. In particular, these examples describe the evaluation of antiarrhythmic activity in the Oubain dog model. […] The test compound was infused intravenously in saline at a rate of about 0.3 to about 5 mg/kg/min until normal sinus rhythm or toxicity occurred. Normal sinus rhythm was defined as 90-100% normal complexes over a 5 minute period.

For assay [3], the system named is ventricular arrhythmias induced by two-stage ligation of the left anterior descending coronary artery (Harris dog). Kind of assay: Antiarrhythmic activity by coronary ligation in the Harris dog model (i.v. infusion). Type of assay: in vivo, dog (adult mongrel). The conditions noted are these: Harris dog, IV infusion, ED is the effective dose required to sustain normal sinus rhythm; for minimal effective dose: Canis lupus familiaris, read-out: Antiarrhythmic ED in Harris Dog. The text has this:
The following examples describe the pharmacological evaluation of the compounds made in accordance with the present invention. In particular, these examples describe the evaluation of antiarrhythmic activity by coronary ligation in the well known Harris dog model. Ventricular arrhythmias were induced in adult mongrel dogs (10-15 kg) of either sex by two-stage ligation of the left anterior descending coronary artery. […] The test compound in saline was infused intravenously at a cumulative rate of […] to 1.2 mg/kg/min (base) unitl normal sinus rhythm or toxicity occurred. Normal sinus rhythm was defined as 90-100% normal complexes over a 5 min period.

With `O=C(NCc1cc(CN2CCCC2)c(O)c(CN2CCCC2)c1)c1ccccc1Cl` [XXVI, N--(2-chlorobenzoyl)-3,5-bis(pyrrolidinylmethyl)-4-hydroxybenzylamine], the inhibition at 4 µg/mL in assay [1] is 18%. Further, the minimal effective dose in assay [2] turned out to be 2.3 mg/kg.

Turning to `O=C(NCc1cc(CN2CCCC2)c(O)c(CN2CCCC2)c1)c1cccc(C(F)(F)F)c1` [XXV, N--(3-trifluoromethylbenzoyl)-3,5-bis(pyrrolidinylmethyl)-4-hydroxybenzylamine], the inhibition at 4 µg/mL in assay [1] stood at 72%. The minimal effective dose in assay [2] is 5.5 mg/kg.

With `Cc1ccccc1C(=O)Nc1cc(CN2CCCC2)c(O)c(CN2CCCC2)c1` [XVI, N--(2-methylbenzoyl)-3,5,-bis(N--pyrrolidinylmethyl)-4-hydroxyaniline], the inhibition at 4 µg/mL in assay [1] was 9.4%. Besides, in assay [2], the minimal effective dose worked out at 2 mg/kg.

Take `CN(C(=O)c1ccccc1)c1cc(CN2CCCC2)c(O)c(CN2CCCC2)c1` [XXXIV]: in assay [1], the inhibition at 4 µg/mL was found to be 16%. The minimal effective dose in assay [2] was found to be 16 mg/kg.

For the compound `Cc1ccc(C(=O)Nc2cc(CN3CCCC3)c(O)c(CN3CCCC3)c2)cc1` [V, N--(4-methylbenzoyl)-3,5,-bis(N--pyrrolidinylmethyl)-4-hydroxyaniline], the figures for the minimal effective dose in assay [3] and in assay [2] were 15 mg/kg and 3 mg/kg, respectively. Besides, the inhibition at 4 µg/mL in assay [1] is 22%.

“2,6-bis(pyrrolidinylmethyl)-4-benzyl-phenol [XXXVI]”: the “Antiarrhythmic ED in Harris Dog” value in assay [3] is listed as “low activity”. Further, the “Anticholinergic Inhibition of Guinea Pig Ileum (% inhibition at 4 mg/L)” value in assay [1] is listed as 14%.

In the case of `O=C(NCc1cc(CN2CCCC2)c(O)c(CN2CCCC2)c1)c1ccc(C(F)(F)F)cc1` [XXXV, N-(4-trifluoromethyl)-3,5-bis(pyrrolidinylmethyl)-4-hydroxybenzylamine], the inhibition at 4 µg/mL in assay [1] is 49%. In assay [2], the minimal effective dose came to 4.5 mg/kg.

Consider `O=C(Nc1cc(CN2CCCC2)c(O)c(CN2CCCC2)c1)c1cccc(C(F)(F)F)c1` [IX, N--(3-trifluoromethylbenzoyl)-3,5,-bis(N--pyrrolidinylmethyl)-4-hydroxyaniline], for which the inhibition at 4 µg/mL in assay [1] was determined as 62%. Besides, the minimal effective dose in assay [2] turned out to be 2.25 mg/kg.

In the case of `O=C(Nc1ccccc1)c1cc(CN2CCCC2)c(O)c(CN2CCCC2)c1` [Example XXXIII, N-([3,5-bis(pyrrolidinylmethyl)-4-hydroxy]benzoyl)-aniline], the minimal effective dose in assay [2] was 3.5 mg/kg.

With `COc1ccccc1C(=O)Nc1cc(CN2CCCC2)c(O)c(CN2CCCC2)c1` [XIV, N--(2-methoxybenzoyl)-3,5,-bis(N--pyrrolidinylmethyl)-4-hydroxyaniline], the inhibition at 4 µg/mL in assay [1] worked out at 31%. Besides, in assay [2], the minimal effective dose worked out at 3 mg/kg.

Take `O=C(NCc1cc(CN2CCCC2)c(O)c(CN2CCCC2)c1)c1cccc(Cl)c1` [XXVII, N--(3-chlorobenzoyl)-3,5-bis(pyrrolidinylmethyl)-4-hydroxybenzylamine]: the inhibition at 4 µg/mL in assay [1] turned out to be 78%. Also, the minimal effective dose in assay [2] is 9.8 mg/kg.

Take `COc1cc(C(=O)Nc2cc(CN3CCCC3)c(O)c(CN3CCCC3)c2)cc(OC)c1OC` [XVIII]: the inhibition at 4 µg/mL in assay [1] was determined as 5.9%. Also, in assay [2], the “Antiarrhythmic ED in Ouabain Dog” value is “inactive”.

`O=C(Nc1cc(CN2CCCCC2)c(O)c(CN2CCCCC2)c1)c1ccccc1` [Example XXXII, N-(benzoyl)3,5-bis(piperidinylmethyl)-4-hydroxyaniline]: in assay [1], the inhibition at 4 µg/mL was determined as 33%. For the same compound, the minimal effective dose in assay [2] is 11 mg/kg.

`Oc1c(CN2CCCC2)cc(OCc2ccccc2)cc1CN1CCCC1` [Example I, 4-benzyloxy-2,6-bis(pyrrolidinylmethyl)phenol]: the values for the minimal effective dose in assay [3] and in assay [2] were 4.5 mg/kg and 1.5 mg/kg, respectively. The inhibition at 4 µg/mL in assay [1] stood at 62%.

`Cc1cccc(C(=O)Nc2cc(CN3CCCC3)c(O)c(CN3CCCC3)c2)c1` [XV, N--(3-methylbenzoyl)-3,5,-bis(N--pyrrolidinylmethyl)-4-hydroxyaniline]: the inhibition at 4 µg/mL in assay [1] was 32%. In assay [2], the minimal effective dose is 5.3 mg/kg.

For the compound `O=C(NCc1cc(CN2CCCC2)c(O)c(CN2CCCC2)c1)c1ccccc1` [Example XXII, N-(benzoyl)-3,5-bis(pyrrolidinylmethyl)-4-hydroxybenzylamine], in assay [1], the inhibition at 4 µg/mL worked out at 32%. Besides, the minimal effective dose in assay [2] came to 3 mg/kg.

In the case of `Nc1cc(CN2CCCC2)c(O)c(CN2CCCC2)c1` [Example XXX, 3,5-bis(N-pyrrolidinylmethyl)-4-hydroxyaniline], the “Antiarrhythmic ED in Harris Dog” value in assay [3] is “inactive”. Also, in assay [1], the inhibition at 4 µg/mL is 3%.

On to `O=C(Nc1cc(CN2CCCC2)c(O)c(CN2CCCC2)c1)c1cccs1` [Example XX, N--(2-thiophenecarbonyl)-3,5-bis(N--pyrrolidinylmethyl)-4-hydroxyaniline], for which the inhibition at 4 µg/mL in assay [1] was 4%. Further, the minimal effective dose in assay [2] came out at 1.9 mg/kg.

Turning to `O=C(Cc1cccs1)Nc1cc(CN2CCCC2)c(O)c(CN2CCCC2)c1` [Example XXI], the inhibition at 4 µg/mL in assay [1] is 13%. Also, the “Antiarrhythmic ED in Ouabain Dog” value in assay [2] is on record as “low activity”.

Take `COc1ccc(C(=O)Nc2cc(CN3CCCC3)c(O)c(CN3CCCC3)c2)cc1` [VIII, N--(4-methoxybenzoyl)-3,5,-bis(N--pyrrolidinylmethyl)-4-hydroxyaniline]: in assay [1], the inhibition at 4 µg/mL worked out at 24%. Further, the minimal effective dose in assay [2] turned out to be 7.2 mg/kg.

Turning to `Nc1ccc(C(=O)Nc2cc(CN3CCCC3)c(O)c(CN3CCCC3)c2)cc1` [XXVIII, N-(4-aminobenzoyl)-3,5-bis(pyrrolidinylmethyl)-4-hydroxyaniline], the inhibition at 4 µg/mL in assay [1] turned out to be 0%. The minimal effective dose in assay [2] stood at 4.5 mg/kg.

As for `O=C(Nc1cc(CN2CCCC2)c(O)c(CN2CCCC2)c1)c1ccc(Cl)cc1Cl` [VI, N--(2,4,dichorobenzoyl)-3,5,-bis(N--pyrrolidinylmethyl)-4-hydroxyaniline], in assay [1], the inhibition at 4 µg/mL worked out at 11%. In assay [2], the “Antiarrhythmic ED in Ouabain Dog” value was “low activity”.

Regarding `O=C(NCc1cc(CN2CCCC2)c(O)c(CN2CCCC2)c1)c1ccccc1C(F)(F)F` [XXIV, N--(2-trifluoromethylbenzoyl)-3,5-bis(pyrrolidinylmethyl)-4-hydroxybenzylamine], in assay [1], the inhibition at 4 µg/mL was 8.5%. The minimal effective dose in assay [2] came out at 1.7 mg/kg.

On to `CC(=O)Nc1cc(CN2CCCC2)c(O)c(CN2CCCC2)c1` [Example XXIX, 3,5-bis(N-pyrrolidinylmethyl)-4-hydroxyacetanilide], for which the “Antiarrhythmic ED in Harris Dog” value in assay [3] was “inactive”.

Consider `O=C(Nc1cc(CN2CCCC2)c(O)c(CN2CCCC2)c1)c1c(Cl)cccc1Cl` [XVII, N--(2,6,dichlorobenzoyl)-3,5,-bis(N--pyrrolidinylmethyl)-4-hydroxyaniline], for which the inhibition at 4 µg/mL in assay [1] turned out to be 14.3%. Also, in assay [2], the minimal effective dose came out at 2 mg/kg.

Turning to `Cc1cccc(C)c1C(=O)Nc1cc(CN2CCCC2)c(O)c(CN2CCCC2)c1` [IXX, N--(2,6,dimethylbenzoyl)-3,5,-bis(N--pyrrolidinylmethyl)-4-hydroxyaniline], the inhibition at 4 µg/mL in assay [1] worked out at 15%. Moreover, the minimal effective dose in assay [2] came out at 4.3 mg/kg.

With `O=C(Nc1cc(CN2CCOCC2)c(O)c(CN2CCOCC2)c1)c1ccccc1` [Example XXXI, N-(benzoy)3,5-bis(morpholinomethyl)-4-hydroxyaniline], in assay [1], the inhibition at 4 µg/mL was 37%. For the same compound, the minimal effective dose in assay [2] is 16.5 mg/kg.

Turning to `O=C(Nc1cc(CN2CCCC2)c(O)c(CN2CCCC2)c1)c1ccccc1Cl` [Example X, N--(2-chlorobenzoyl)-3,5,-bis(N--pyrrolidinylmethyl)-4-hydroxyaniline], the inhibition at 4 µg/mL in assay [1] is 0%. In addition, in assay [2], the minimal effective dose was 5.8 mg/kg.

With `O=C(Nc1cc(CN2CCCC2)c(O)c(CN2CCCC2)c1)c1cccc(Cl)c1` [XI, N--(3-chlorobenzoyl)-3,5,-bis(N--pyrrolidinylmethyl)-4-hydroxyaniline], the inhibition at 4 µg/mL in assay [1] turned out to be 37%. Besides, the minimal effective dose in assay [2] is 3.75 mg/kg.

Turning to `O=C(NCc1cc(CN2CCCC2)c(O)c(CN2CCCC2)c1)c1ccc(Cl)cc1` [XXIII, N--(4-chlorobenzoyl)-3,5-bis(pyrrolidinylmethyl)-4-hydroxybenzylamine], the inhibition at 4 µg/mL in assay [1] stood at 56%. For the same compound, in assay [2], the minimal effective dose came to 3.8 mg/kg.

`O=C(Nc1cc(CN2CCCC2)c(O)c(CN2CCCC2)c1)c1ccccc1C(F)(F)F` [XII, N--(2-trifluoromethylbenzoyl)-3,5,-bis(N--pyrrolidinylmethyl)-4-hydroxyaniline]: the inhibition at 4 µg/mL in assay [1] turned out to be 0%. In assay [2], the minimal effective dose is 6.2 mg/kg.

`O=C(Nc1cc(CN2CCCC2)c(O)c(CN2CCCC2)c1)c1ccc([N+](=O)[O-])cc1` [VII, N--(4-nitrobenzoyl)-3,5,-bis(N--pyrrolidinylmethyl)-4-hydroxyaniline]: the inhibition at 4 µg/mL in assay [1] stood at 24%. Also, the minimal effective dose in assay [2] was 11 mg/kg.

For the origin of these results see US4755527A, “Aryl substituted aminomethyl benzene derivatives” (priority 1985, dated 1988).
